Structures are written as SMILES.

We go through seven compounds from ChEMBL document CHEMBL3600325, “Inhibitory effect of pironetin analogue/colchicine hybrids on the expression of the VEGF, hTERT and c-Myc genes” (2015).

Holding throughout (format): functional
Parameters in all cases: scale not given: the % may be the effect or the level left

Experiment [1] deals with HT-29. The experiment is described as follows: Inhibition of VEGF production in human HT-29 cells assessed as VEGF level at 5 ug/ml incubated for 72 hrs by ELISA method relative to control.
Experiment [2] has as its system HT-29. Description: Inhibition of Myc mRNA expression in human HT-29 cells assessed as Myc mRNA level at 50 nM incubated for 48 hrs by RT-PCR method relative to control.
The test system of experiment [3] is HT-29. The experiment is described as follows: Inhibition of VEGF mRNA expression in human HT-29 cells assessed as VEGF mRNA level at 10 uM incubated for 48 hrs by RT-PCR method relative to control.
The subject of experiment [4] is HT-29. Description: Inhibition of VEGF mRNA expression in human HT-29 cells assessed as VEGF mRNA level at 50 nM incubated for 48 hrs by RT-PCR method relative to control.
The test system of experiment [5] is HT-29. The experiment is described as follows: Inhibition of Myc mRNA expression in human HT-29 cells assessed as Myc mRNA level at 5 ug/ml incubated for 48 hrs by RT-PCR method relative to control.
In experiment [6] the test system is HT-29. Description: Inhibition of VEGF mRNA expression in human HT-29 cells assessed as VEGF mRNA level at 5 ug/ml incubated for 48 hrs by RT-PCR method relative to control.
The test system of experiment [7] is HT-29. The experiment is described as follows: Inhibition of Myc mRNA expression in human HT-29 cells assessed as Myc mRNA level at 10 uM incubated for 48 hrs by RT-PCR method relative to control.
Experiment [8] concerns HT-29. Description: Inhibition of hTERT mRNA expression in human HT-29 cells assessed as hTERT mRNA level at 50 nM incubated for 48 hrs by RT-PCR method relative to control.
The subject of experiment [9] is HT-29. Description: Inhibition of hTERT mRNA expression in human HT-29 cells assessed as hTERT mRNA level at 5 ug/ml incubated for 48 hrs by RT-PCR method relative to control.
The subject of experiment [10] is HT-29. The experiment is described as follows: Inhibition of hTERT mRNA expression in human HT-29 cells assessed as hTERT mRNA level at 10 uM incubated for 48 hrs by RT-PCR method relative to control.

As for `COc1cc2c(c(OC)c1OC)-c1ccc(OC)c(=O)cc1[C@@H](NC(C)=O)CC2` [COLCHICINE], the Activity in the experiment on HT-29 [1] is 40%; in the experiment on HT-29 [2], 19%; with HT-29 [3], 5%; in the experiment on HT-29 [4] it was 48%; in the experiment with HT-29 [5], 6%; with HT-29 [6], 4%. The Activity with HT-29 [7] came to 6%; with HT-29 [8], 43%; with HT-29 [9], 20%; in the experiment with HT-29 [10], 30%.

With `COc1cc2c(c(OC)c1OC)-c1ccc(OC)c(=O)cc1[C@@H](NC(=O)CCCC(=O)OCCCCC[C@@H]1CC=CC(=O)O1)CC2`, the Activity worked out at 45% with HT-29 [1], 16% with HT-29 [5], 6% in the experiment on HT-29 [6] and 67% with HT-29 [9].

With `COc1cc2c(c(OC)c1OC)-c1ccc(OC)c(=O)cc1[C@@H](NC(=O)CCCCCCCCCCC(=O)OCCCCC[C@@H]1CC=CC(=O)O1)CC2`, the Activity in the experiment with HT-29 [1] was 64%; with HT-29 [2] it was 60%; in the experiment on HT-29 [3], 8%; in the experiment with HT-29 [4], 36%; with HT-29 [5], 5%; with HT-29 [6], 3%. Besides, the Activity in the experiment on HT-29 [7] was 13%; in the experiment on HT-29 [8], 75%; in the experiment with HT-29 [9], 19%; with HT-29 [10], 27%.

`COc1cc2c(c(OC)c1OC)-c1ccc(OC)c(=O)cc1[C@@H](NC(=O)CCCCCCCCCCC(=O)OCC[C@H](C[C@H](O)C[C@@H]1CC=CC(=O)O1)OC)CC2`: the Activity in the experiment with HT-29 [1] is on record as 44%; in the experiment on HT-29 [2], 94%; in the experiment on HT-29 [3], 9%; in the experiment on HT-29 [4], 51%; in the experiment with HT-29 [5], 15%; with HT-29 [6], 7%. Further, the Activity turned out to be 32% in the experiment with HT-29 [7], 81% with HT-29 [8], 42% with HT-29 [9] and 55% in the experiment on HT-29 [10].

For `CO[C@H](CCO)C[C@H](O)C[C@@H]1CC=CC(=O)O1`, the Activity is 93% in the experiment on HT-29 [1]; above 100% in the experiment with HT-29 [2]; 40% in the experiment with HT-29 [3]; 90% in the experiment with HT-29 [4]; 111% in the experiment with HT-29 [5]; 44% in the experiment on HT-29 [6]. Besides, the Activity is 66% in the experiment on HT-29 [7], above 100% with HT-29 [8], 125% with HT-29 [9] and above 100% in the experiment with HT-29 [10].

As for `C/C=C/C[C@H](C)[C@@H](OC)[C@@H](C)[C@H](O)C[C@H]1OC(=O)C=C[C@H]1CC` [PIRONETIN], the Activity in the experiment on HT-29 [1] is recorded as 50%; with HT-29 [5] it was 118%; in the experiment with HT-29 [6], 48%; with HT-29 [9], 119%.

Turning to `COc1cc2c(c(OC)c1OC)-c1ccc(OC)c(=O)cc1[C@@H](NC(=O)CCCC(=O)OCC[C@H](C[C@H](C)C[C@@H]1CC=CC(=O)O1)OC)CC2`, the Activity is on record as 44% in the experiment on HT-29 [1], 97% in the experiment with HT-29 [5], 70% in the experiment with HT-29 [6] and 125% with HT-29 [9].
